In article PMC8333425, “Discovery of a dual Ras and ARF6 inhibitor from a GPCR endocytosis screen” (Nature Communications, 2021):

Tests used:
Assay in all cases: KINOMEscan kinase binding assay
[1] = biological target: T1, 384 kinases from the human genome (Homo sapiens, UniProt Q13153); conditions: kinase PAK1 (Entrez PAK1)
T1 construct: purchased Eurofin/DiscoverX
Method in brief: (§1)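 Competition binding (KINOMEscan) across 384 human kinases with compound at 10 µM. Ligand binding was expressed relative to DMSO (100%) as the average of duplicates from one experiment. S(10) selectivity score was derived.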

[2] = biological target: T2, 384 kinases from the human genome (Homo sapiens, UniProt Q15759); conditions: kinase p38-beta (Entrez MAPK11)
T2 construct: purchased Eurofin/DiscoverX
Method in brief: as §1

[3] = biological target: T3, 384 kinases from the human genome (Homo sapiens, UniProt P36896); conditions: kinase ACVR1B (Entrez ACVR1B)
T3 construct: purchased Eurofin/DiscoverX
Method in brief: as §1

[4] = biological target: T4, 384 kinases from the human genome (Homo sapiens, UniProt Q9NSY1); conditions: kinase BIKE (Entrez BMP2K)
T4 construct: purchased Eurofin/DiscoverX
Method in brief: as §1

[5] = biological target: T5, 384 kinases from the human genome (Homo sapiens, UniProt P35968); conditions: kinase VEGFR2 (Entrez KDR)
T5 construct: purchased Eurofin/DiscoverX
Method in brief: as §1

[6] = biological target: T6, 384 kinases from the human genome (Homo sapiens, UniProt Q8IVH8); conditions: kinase MAP4K3 (Entrez MAP4K3)
T6 construct: purchased Eurofin/DiscoverX
Method in brief: as §1

[7] = biological target: T7, 384 kinases from the human genome (Homo sapiens, UniProt P80192); conditions: kinase MLK1 (Entrez MAP3K9)
T7 construct: purchased Eurofin/DiscoverX
Method in brief: as §1

[8] = biological target: T8, 384 kinases from the human genome (Homo sapiens, UniProt P29322); conditions: kinase EPHA8 (Entrez EPHA8)
T8 construct: purchased Eurofin/DiscoverX
Method in brief: as §1

[9] = biological target: T9, 384 kinases from the human genome (Homo sapiens, UniProt Q13557); conditions: kinase CAMK2D (Entrez CAMK2D)
T9 construct: purchased Eurofin/DiscoverX
Method in brief: as §1

[10] = biological target: T10, 384 kinases from the human genome (Homo sapiens, UniProt Q9BWU1); conditions: kinase CDK11 (Entrez CDK19)
T10 construct: purchased Eurofin/DiscoverX
Method in brief: as §1

[11] = biological target: T11, 384 kinases from the human genome (Homo sapiens, UniProt P24723); conditions: kinase PRKCH (Entrez PRKCH)
T11 construct: purchased Eurofin/DiscoverX
Method in brief: as §1

[12] = biological target: T12, 384 kinases from the human genome (Homo sapiens, UniProt Q16539); conditions: kinase p38-alpha (Entrez MAPK14)
T12 construct: purchased Eurofin/DiscoverX
Method in brief: as §1

[13] = biological target: T13, 384 kinases from the human genome (Homo sapiens, UniProt P36888)
T13 construct: purchased Eurofin/DiscoverX
T13 sequence (P36888 27-993): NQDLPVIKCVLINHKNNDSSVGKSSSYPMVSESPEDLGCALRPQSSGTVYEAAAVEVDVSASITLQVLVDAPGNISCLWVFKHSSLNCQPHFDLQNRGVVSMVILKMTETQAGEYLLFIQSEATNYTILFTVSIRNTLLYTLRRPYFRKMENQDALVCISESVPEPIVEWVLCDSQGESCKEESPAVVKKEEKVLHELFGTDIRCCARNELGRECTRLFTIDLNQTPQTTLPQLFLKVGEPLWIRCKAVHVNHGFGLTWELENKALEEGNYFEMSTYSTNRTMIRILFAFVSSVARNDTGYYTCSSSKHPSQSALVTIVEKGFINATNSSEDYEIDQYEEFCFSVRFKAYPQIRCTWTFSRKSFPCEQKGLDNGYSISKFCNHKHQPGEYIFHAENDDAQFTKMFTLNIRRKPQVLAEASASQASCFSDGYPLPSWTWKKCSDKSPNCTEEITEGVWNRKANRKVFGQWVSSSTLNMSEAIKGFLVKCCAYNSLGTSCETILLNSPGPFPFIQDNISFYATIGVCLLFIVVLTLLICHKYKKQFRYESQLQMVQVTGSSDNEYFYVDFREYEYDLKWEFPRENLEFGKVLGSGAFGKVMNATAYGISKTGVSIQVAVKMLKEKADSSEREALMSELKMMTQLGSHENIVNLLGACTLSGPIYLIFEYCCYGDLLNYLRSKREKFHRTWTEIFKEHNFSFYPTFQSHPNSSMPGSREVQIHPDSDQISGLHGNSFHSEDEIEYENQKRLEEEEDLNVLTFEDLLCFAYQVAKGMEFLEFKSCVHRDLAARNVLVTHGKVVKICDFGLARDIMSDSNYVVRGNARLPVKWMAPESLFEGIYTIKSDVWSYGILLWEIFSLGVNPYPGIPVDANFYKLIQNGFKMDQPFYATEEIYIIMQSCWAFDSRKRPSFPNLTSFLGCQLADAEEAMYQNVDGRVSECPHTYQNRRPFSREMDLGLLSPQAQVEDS
Method in brief: as §1

[14] = biological target: T14, 384 kinases from the human genome (Homo sapiens, UniProt Q13131); conditions: kinase AMPK-alpha1 (Entrez PRKAA1)
T14 construct: purchased Eurofin/DiscoverX
Method in brief: as §1

T11 sequence (P24723 whole entry): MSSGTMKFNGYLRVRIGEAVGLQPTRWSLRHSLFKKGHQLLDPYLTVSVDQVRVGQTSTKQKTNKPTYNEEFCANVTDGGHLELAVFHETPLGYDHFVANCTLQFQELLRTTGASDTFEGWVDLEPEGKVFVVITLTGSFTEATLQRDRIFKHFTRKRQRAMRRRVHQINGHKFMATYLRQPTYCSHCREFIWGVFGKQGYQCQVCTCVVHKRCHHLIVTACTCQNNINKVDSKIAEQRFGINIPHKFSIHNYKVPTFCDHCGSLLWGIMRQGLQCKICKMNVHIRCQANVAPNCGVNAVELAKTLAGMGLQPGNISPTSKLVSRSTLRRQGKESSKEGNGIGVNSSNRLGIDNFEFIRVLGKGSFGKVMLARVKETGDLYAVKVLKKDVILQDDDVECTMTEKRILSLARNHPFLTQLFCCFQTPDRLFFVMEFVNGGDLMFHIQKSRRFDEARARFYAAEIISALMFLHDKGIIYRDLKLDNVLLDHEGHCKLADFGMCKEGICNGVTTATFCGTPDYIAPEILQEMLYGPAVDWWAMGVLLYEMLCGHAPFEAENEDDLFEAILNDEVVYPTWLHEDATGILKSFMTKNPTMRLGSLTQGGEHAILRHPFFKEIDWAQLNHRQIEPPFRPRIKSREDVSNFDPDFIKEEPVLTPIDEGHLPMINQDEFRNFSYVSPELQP
T9 sequence (Q13557 whole entry): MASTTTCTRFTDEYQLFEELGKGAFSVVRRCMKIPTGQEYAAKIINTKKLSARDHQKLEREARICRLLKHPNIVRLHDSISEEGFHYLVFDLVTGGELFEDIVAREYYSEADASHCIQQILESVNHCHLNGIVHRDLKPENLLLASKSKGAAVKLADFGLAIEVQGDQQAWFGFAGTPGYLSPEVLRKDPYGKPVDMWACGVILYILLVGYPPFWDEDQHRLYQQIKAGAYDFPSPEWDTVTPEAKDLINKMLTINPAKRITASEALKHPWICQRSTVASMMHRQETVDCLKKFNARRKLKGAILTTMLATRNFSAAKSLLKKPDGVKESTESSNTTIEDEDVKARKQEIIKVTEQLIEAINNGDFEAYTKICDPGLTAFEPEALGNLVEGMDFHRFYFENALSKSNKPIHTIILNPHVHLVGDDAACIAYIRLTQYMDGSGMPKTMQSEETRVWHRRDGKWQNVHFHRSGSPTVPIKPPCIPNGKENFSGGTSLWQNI
T14 sequence (Q13131 whole entry): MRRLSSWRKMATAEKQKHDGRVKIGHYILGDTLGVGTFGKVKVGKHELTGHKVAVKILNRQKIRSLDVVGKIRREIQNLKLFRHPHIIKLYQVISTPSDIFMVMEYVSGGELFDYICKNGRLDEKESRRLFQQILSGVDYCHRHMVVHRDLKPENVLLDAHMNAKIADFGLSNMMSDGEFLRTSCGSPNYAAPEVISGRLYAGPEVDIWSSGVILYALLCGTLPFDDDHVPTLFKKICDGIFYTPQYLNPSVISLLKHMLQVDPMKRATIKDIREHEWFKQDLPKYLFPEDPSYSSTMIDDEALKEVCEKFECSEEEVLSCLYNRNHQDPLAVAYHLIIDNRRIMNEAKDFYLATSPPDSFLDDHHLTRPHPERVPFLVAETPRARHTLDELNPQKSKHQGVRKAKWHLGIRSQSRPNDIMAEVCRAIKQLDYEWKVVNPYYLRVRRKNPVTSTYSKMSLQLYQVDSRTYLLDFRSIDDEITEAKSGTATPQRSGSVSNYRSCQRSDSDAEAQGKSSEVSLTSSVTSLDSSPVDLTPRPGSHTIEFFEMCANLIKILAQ
T3 sequence (P36896 24-505): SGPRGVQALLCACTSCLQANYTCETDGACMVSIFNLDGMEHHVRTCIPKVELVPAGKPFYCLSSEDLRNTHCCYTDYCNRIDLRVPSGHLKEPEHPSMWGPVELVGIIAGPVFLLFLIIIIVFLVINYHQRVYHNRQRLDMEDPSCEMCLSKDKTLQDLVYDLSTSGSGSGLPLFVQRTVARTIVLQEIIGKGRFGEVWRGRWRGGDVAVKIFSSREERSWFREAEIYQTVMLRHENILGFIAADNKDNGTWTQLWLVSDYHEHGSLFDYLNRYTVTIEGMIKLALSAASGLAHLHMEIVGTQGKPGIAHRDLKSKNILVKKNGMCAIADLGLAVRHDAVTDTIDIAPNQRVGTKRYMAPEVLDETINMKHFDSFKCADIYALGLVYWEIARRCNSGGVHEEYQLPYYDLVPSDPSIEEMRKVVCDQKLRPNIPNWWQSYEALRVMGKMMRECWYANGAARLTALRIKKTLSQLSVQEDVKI
T4 sequence (Q9NSY1 whole entry): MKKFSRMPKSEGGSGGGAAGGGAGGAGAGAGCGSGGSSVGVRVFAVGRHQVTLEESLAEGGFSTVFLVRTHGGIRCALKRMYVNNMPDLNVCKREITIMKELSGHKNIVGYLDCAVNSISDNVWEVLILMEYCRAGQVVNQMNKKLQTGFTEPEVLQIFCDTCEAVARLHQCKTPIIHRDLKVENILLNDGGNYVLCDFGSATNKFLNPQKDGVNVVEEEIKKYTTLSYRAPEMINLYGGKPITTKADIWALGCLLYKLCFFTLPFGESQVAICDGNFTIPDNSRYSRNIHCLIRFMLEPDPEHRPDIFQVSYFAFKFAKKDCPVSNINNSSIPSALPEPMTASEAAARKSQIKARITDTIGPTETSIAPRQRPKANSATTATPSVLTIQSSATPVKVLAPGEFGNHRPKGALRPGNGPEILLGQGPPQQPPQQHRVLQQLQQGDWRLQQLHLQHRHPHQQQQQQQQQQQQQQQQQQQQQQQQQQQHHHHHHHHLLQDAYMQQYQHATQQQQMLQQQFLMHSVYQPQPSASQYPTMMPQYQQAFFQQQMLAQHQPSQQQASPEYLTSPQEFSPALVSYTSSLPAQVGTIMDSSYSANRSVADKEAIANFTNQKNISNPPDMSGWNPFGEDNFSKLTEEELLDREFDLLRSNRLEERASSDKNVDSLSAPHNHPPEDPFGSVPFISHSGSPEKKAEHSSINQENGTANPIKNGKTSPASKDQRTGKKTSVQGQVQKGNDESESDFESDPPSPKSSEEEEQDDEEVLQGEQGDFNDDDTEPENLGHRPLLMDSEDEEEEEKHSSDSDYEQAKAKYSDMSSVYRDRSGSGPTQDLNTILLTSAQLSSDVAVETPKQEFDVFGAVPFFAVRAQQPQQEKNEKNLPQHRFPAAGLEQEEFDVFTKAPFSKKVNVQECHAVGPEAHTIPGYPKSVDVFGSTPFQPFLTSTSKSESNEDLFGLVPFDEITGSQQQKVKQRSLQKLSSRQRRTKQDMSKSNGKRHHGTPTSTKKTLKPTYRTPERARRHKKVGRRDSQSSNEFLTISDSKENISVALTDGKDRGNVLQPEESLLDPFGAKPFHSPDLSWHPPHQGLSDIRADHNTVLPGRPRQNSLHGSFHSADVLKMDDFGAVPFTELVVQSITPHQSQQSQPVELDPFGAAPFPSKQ
T12 sequence (Q16539 whole entry): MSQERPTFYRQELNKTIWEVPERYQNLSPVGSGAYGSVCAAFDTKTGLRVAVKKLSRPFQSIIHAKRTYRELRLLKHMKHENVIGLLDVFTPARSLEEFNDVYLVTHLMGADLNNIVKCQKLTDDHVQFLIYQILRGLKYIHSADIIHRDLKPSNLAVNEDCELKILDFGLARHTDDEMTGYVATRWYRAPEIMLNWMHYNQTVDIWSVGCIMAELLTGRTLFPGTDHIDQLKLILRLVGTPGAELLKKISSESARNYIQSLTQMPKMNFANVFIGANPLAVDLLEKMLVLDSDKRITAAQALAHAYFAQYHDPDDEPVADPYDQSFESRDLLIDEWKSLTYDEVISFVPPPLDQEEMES
T6 sequence (Q8IVH8 whole entry): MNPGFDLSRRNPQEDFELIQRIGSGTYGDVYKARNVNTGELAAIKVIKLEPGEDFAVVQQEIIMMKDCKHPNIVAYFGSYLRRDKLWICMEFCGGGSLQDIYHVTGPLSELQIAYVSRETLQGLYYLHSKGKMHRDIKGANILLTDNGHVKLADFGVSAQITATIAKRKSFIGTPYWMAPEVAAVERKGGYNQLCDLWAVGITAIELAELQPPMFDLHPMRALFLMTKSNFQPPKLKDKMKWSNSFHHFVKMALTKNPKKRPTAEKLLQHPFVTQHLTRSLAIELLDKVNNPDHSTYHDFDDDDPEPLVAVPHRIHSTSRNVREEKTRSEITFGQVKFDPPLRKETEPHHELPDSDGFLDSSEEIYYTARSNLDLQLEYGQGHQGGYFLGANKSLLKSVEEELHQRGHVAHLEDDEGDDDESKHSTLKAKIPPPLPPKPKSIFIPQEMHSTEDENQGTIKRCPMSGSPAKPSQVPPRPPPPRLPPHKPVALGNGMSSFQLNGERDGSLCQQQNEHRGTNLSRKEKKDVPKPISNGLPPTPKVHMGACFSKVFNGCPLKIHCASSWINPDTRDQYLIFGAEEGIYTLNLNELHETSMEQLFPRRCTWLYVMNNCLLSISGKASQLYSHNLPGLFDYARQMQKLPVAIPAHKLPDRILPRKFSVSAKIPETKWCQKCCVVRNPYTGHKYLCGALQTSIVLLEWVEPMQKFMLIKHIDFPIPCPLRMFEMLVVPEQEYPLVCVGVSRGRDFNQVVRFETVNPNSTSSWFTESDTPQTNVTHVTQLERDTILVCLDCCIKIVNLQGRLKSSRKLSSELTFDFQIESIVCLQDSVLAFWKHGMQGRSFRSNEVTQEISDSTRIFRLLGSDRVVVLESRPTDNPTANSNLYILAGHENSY
T2 sequence (Q15759 whole entry): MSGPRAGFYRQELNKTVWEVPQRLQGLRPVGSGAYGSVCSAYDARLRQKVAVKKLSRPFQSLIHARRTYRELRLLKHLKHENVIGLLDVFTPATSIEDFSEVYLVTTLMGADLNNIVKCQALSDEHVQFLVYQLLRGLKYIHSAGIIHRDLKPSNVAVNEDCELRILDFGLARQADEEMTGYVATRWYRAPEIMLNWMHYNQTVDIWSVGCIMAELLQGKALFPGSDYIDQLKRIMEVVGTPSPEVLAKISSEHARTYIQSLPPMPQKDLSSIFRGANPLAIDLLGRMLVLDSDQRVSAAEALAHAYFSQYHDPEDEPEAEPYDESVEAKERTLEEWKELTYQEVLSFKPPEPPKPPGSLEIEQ

SMILES: CC(C)C(=O)N1CCN(c2ccc(NC(=O)c3cc4ccccc4o3)cc2Cl)CC1 [Compound 21]
- Percent Control [1]: 92%
- Percent Control [2]: 80%
- Percent Control [3]: 85%
- Percent Control [4]: 100%
- Percent Control [5]: 93%
- Percent Control [6]: 78%
- Percent Control [7]: 96%
- Percent Control [8]: 94%
- Percent Control [9]: 92%
- Percent Control [10]: 100%
- Percent Control [11]: 92%
- Percent Control [12]: 100%
- FLT3 binding to its ligand affected ([13]; 10 µM of 21, compared to DMSO (100%)): more than 90%
- Percent Control ([13]; kinase FLT3 (Entrez FLT3)): 6.6%
- Percent Control ([13]; kinase FLT3-autoinhibited (Entrez FLT3)): 71%
- Percent Control [14]: 99%
